From ChEMBL document CHEMBL4507326, “Data for DCP probe TP-030-2” (2021)
pIC50: −log10 of the molar value.

How the values were obtained:
[1] = target: Mitogen-activated protein kinase kinase kinase kinase 4 (Homo sapiens, UniProt O95819); assay: HGK [ZC1(M4K4CGP1)] Takeda global kinase panel
[2] = target: Ephrin type-A receptor 5 (Homo sapiens, UniProt P54756); assay: EphA5(EPA5MGF1) Takeda global kinase panel
[3] = target: Ribosomal protein S6 kinase alpha-4 (Homo sapiens, UniProt O75676); assay: MSK2(R6A4LGRJ) Takeda global kinase panel
Sequence of Ribosomal protein S6 kinase alpha-4 (O75676 whole entry): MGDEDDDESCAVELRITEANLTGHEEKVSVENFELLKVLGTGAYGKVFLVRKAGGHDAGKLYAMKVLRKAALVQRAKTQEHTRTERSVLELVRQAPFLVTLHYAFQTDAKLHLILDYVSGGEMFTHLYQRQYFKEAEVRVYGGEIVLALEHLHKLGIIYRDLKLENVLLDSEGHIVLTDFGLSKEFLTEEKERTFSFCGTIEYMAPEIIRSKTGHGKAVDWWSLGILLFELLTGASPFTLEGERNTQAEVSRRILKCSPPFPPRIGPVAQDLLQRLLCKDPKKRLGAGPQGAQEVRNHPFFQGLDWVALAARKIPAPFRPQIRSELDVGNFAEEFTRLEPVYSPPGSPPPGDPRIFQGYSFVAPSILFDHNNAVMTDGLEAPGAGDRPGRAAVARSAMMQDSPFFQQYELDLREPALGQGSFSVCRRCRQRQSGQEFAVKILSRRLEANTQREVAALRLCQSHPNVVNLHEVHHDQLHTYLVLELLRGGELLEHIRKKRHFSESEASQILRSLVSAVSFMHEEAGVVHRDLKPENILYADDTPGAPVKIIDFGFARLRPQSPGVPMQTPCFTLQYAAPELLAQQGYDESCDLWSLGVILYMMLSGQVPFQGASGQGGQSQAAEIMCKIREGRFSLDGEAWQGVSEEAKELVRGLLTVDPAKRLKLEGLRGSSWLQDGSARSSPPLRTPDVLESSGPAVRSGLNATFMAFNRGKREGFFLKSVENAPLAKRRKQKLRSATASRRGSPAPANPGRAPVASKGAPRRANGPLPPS

[4] = target: Serine/threonine-protein kinase PAK 6 (Homo sapiens, UniProt Q9NQU5); assay: PAK6(PAK6CGY1) Takeda global kinase panel
[5] = target: Tyrosine-protein kinase Tec (Homo sapiens, UniProt P42680); assay: TEC(TEC1CGD1) Takeda global kinase panel
[6] = target: Serine/threonine-protein kinase D2 (Homo sapiens, UniProt Q9BZL6); assay: PKD2(PRD2LHY1) Takeda global kinase panel
[7] = target: Homeodomain-interacting protein kinase 2 (Homo sapiens, UniProt Q9H2X6); assay: HIPK2(HIP2LGY1) Takeda global kinase panel
Sequence of Homeodomain-interacting protein kinase 2 (Q9H2X6 whole entry): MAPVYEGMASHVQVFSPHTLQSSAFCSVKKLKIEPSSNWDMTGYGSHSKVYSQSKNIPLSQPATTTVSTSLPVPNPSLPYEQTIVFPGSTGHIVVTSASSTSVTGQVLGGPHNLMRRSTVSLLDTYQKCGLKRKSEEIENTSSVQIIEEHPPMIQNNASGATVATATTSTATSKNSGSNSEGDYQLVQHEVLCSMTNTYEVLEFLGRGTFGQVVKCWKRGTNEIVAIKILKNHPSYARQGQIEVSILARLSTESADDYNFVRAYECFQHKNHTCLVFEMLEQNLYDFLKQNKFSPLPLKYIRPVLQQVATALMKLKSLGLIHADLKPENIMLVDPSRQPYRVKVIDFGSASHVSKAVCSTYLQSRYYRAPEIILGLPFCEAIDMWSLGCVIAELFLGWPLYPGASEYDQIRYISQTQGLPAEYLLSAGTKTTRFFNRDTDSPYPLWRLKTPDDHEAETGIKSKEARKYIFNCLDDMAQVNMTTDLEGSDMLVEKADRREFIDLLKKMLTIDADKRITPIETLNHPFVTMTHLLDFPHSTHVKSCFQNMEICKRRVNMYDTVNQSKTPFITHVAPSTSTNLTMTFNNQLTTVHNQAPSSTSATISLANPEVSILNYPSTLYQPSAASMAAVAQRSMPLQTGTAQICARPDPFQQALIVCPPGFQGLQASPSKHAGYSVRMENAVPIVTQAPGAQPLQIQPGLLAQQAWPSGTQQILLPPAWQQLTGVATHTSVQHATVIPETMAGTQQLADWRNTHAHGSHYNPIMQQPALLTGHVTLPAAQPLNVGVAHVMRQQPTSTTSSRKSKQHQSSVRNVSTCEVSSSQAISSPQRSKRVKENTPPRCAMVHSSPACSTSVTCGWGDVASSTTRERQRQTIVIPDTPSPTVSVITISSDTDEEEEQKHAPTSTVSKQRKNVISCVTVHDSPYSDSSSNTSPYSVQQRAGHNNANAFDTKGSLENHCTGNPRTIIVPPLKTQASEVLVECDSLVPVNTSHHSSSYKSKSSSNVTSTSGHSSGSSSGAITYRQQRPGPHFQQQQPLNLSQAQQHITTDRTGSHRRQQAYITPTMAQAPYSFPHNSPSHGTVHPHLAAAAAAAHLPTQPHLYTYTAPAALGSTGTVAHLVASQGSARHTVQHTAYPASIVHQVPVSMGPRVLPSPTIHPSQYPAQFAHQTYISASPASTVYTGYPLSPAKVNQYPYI

[8] = target: Serine/threonine-protein kinase 26 (Homo sapiens, UniProt Q9P289); assay: MST4(MST4LGC1) Takeda global kinase panel
[9] = target: Serine/threonine-protein kinase MARK2 (Homo sapiens, UniProt Q7KZI7); assay: MARK2(MAR2LGY1) Takeda global kinase panel
[10] = target: Alpha-2A adrenergic receptor (Homo sapiens) (UniProt P08913); settings: Compound concentration 10.0 uM
[11] = target: Tyrosine-protein kinase HCK (Homo sapiens, UniProt P08631); assay: HCK(HCK1LGF1) Takeda global kinase panel
Sequence of Tyrosine-protein kinase HCK (P08631 whole entry): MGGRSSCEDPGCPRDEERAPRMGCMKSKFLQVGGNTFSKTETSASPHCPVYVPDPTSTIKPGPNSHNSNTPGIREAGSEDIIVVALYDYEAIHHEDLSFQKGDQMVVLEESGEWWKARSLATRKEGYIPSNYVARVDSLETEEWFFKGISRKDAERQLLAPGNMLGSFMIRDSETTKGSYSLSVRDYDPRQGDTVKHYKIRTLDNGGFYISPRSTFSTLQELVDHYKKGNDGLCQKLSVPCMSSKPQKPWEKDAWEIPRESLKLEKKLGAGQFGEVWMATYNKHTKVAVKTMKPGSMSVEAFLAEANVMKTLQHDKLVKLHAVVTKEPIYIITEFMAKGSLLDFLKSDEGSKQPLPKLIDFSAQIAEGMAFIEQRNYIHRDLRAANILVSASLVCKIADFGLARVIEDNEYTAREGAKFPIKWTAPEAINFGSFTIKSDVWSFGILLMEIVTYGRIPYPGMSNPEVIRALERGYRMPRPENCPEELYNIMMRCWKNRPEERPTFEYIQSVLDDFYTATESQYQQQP

[12] = target: Serine/threonine-protein kinase PLK4 (Homo sapiens, UniProt O00444); assay: PLK4(PLK4LGF1) Takeda global kinase panel
[13] = target: hERG (KCNH2) (Homo sapiens, UniProt Q12809); assay: Inhibition of Potassium Channel hERG at 10 µM in the Eurofins-Panlabs radioligand binding assay (Eurofins_assay_265900); set-up: ligand concentration 1.5 nM, non-specific ligand with concentration Astemizole, incubation time 60 min, incubation temperature 25 °C; settings: HEK-293 cells expressing human recombinant hERG, probe [3H] Astemizole, compound concentration 10 uM
Sequence of hERG (KCNH2) (Q12809 whole entry): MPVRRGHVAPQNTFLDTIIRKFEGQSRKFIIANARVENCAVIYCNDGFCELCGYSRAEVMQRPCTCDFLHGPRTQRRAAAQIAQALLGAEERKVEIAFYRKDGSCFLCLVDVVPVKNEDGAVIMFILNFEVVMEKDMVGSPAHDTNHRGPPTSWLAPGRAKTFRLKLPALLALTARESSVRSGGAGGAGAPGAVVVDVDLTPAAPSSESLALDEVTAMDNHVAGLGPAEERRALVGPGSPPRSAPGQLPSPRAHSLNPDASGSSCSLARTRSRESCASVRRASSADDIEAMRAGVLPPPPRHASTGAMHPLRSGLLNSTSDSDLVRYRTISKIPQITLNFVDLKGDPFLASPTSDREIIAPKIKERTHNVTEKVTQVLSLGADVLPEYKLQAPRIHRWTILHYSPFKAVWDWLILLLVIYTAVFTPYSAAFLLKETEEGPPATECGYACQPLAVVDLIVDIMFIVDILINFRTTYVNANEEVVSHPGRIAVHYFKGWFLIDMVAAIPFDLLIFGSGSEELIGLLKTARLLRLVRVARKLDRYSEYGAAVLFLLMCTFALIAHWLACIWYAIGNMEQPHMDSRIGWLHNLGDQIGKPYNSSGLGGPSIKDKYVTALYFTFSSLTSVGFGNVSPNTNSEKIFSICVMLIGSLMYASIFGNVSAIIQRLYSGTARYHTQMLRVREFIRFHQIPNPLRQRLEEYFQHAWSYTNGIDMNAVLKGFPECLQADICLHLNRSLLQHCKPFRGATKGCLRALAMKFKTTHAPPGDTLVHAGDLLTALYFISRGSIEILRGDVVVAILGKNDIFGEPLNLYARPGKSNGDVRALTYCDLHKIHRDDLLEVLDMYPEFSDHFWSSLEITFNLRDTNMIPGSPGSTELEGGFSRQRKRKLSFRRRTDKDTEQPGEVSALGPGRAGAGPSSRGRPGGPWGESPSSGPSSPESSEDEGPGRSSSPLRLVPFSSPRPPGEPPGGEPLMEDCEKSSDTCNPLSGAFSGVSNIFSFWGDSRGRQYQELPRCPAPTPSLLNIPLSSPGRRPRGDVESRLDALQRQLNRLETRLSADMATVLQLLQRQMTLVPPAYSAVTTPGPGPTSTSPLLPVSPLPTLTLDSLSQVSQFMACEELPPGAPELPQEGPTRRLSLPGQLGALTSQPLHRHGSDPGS

[14] = target: Dual specificity tyrosine-phosphorylation-regulated kinase 1B (Homo sapiens, UniProt Q9Y463); assay: DYRK1B(DY1BLHY1) Takeda global kinase panel
[15] = target: 5-hydroxytryptamine receptor 5A (Homo sapiens) (UniProt P47898); settings: Compound concentration 10.0 uM
[16] = species: Rattus norvegicus; assay: Inhibition of Rolipram at 10 µM in the Eurofins-Panlabs radioligand binding assay (Eurofins_assay_268811); assay type: protein assay; set-up: ligand concentration 1.8 nM; settings: Compound concentration 10.0 uM
[17] = target: Sigma non-opioid intracellular receptor 1 (Homo sapiens) (UniProt Q99720); assay: Sigma 1 Eurofins-Panlabs radioligand binding assay; set-up: ligand concentration 15 nM; settings: Compound concentration 10.0 uM
[18] = target: Ephrin type-A receptor 1 (Homo sapiens, UniProt P21709); assay: EphA1(EPA1LGY1) Takeda global kinase panel
[19] = species: Homo sapiens; settings: Compound concentration 10.0 uM
[20] = target: Inhibitor of nuclear factor kappa-B kinase subunit epsilon (Homo sapiens, UniProt Q14164); assay: IKKepsilon(IKBELGY1) Takeda global kinase panel
[21] = target: Alpha-2B adrenergic receptor (Homo sapiens) (UniProt P18089); settings: Compound concentration 10.0 uM
[22] = target: ALK tyrosine kinase receptor (Homo sapiens, UniProt Q9UM73); assay: ALK(ALK1LGY1) Takeda global kinase panel
[23] = target: Serine/threonine-protein kinase TAO3 (Homo sapiens, UniProt Q9H2K8); assay: TAO3(TAO3LGY1) Takeda global kinase panel
[24] = target: Casein kinase I isoform alpha-like (Homo sapiens, UniProt Q8N752); assay: CK1alpha2(C1ALLGI5) Takeda global kinase panel
Sequence of Casein kinase I isoform alpha-like (Q8N752 whole entry, canonical isoform): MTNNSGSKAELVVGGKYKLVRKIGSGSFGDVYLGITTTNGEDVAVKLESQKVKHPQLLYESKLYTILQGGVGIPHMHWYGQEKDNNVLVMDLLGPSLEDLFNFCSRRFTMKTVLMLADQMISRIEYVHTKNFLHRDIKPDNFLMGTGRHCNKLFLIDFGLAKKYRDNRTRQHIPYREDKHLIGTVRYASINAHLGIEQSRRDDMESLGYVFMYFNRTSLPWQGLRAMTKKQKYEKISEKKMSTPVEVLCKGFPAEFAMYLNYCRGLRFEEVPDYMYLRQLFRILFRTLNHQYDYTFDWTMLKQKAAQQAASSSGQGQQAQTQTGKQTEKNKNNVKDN

[25] = target: Ephrin type-A receptor 6 (Homo sapiens, UniProt Q9UF33); assay: EphA6(EPA6LGI5) Takeda global kinase panel
[26] = target: Casein kinase I isoform gamma-2 (Homo sapiens, UniProt P78368); assay: CK1gamma2(C1G2LGI1) Takeda global kinase panel
[27] = target: Mitogen-activated protein kinase 13 (Homo sapiens, UniProt O15264); assay: p38delta(MP13LGP1) Takeda global kinase panel
[28] = target: Tyrosine-protein kinase Blk (Homo sapiens, UniProt P51451); assay: BLK(BLK1CGF1) Takeda global kinase panel
[29] = target: B2 bradykinin receptor (Homo sapiens) (UniProt P30411); settings: Compound concentration 10.0 uM
[30] = target: Sodium-dependent dopamine transporter (Homo sapiens) (UniProt Q01959); settings: Compound concentration 10.0 uM
[31] = target: Mitogen-activated protein kinase 4 (Homo sapiens, UniProt P31152); assay: ERK4(MAP4LGY1) Takeda global kinase panel
[32] = target: Kappa-type opioid receptor (Homo sapiens) (UniProt P41145); settings: Compound concentration 10.0 uM
[33] = target: Dual specificity tyrosine-phosphorylation-regulated kinase 1A (Homo sapiens, UniProt Q13627); assay: DYRK1A(DY1ALGP1) Takeda global kinase panel
[34] = target: Serine/threonine-protein kinase pim-3 (Homo sapiens, UniProt Q86V86); assay: Pim3(PIM3LGP1) Takeda global kinase panel
[35] = target: STE20/SPS1-related proline-alanine-rich protein kinase (Homo sapiens, UniProt Q9UEW8); assay: STLK3(ST39LGRJ) Takeda global kinase panel
[36] = target: Serine/threonine-protein kinase NLK (Homo sapiens, UniProt Q9UBE8); assay: NLK(NLK1LGI5) Takeda global kinase panel
[37] = target: Interleukin-1 receptor-associated kinase 3 (Homo sapiens, UniProt Q9Y616); assay: IRAK3(IRK3PFE1) Takeda global kinase panel
Sequence of Interleukin-1 receptor-associated kinase 3 (Q9Y616 whole entry): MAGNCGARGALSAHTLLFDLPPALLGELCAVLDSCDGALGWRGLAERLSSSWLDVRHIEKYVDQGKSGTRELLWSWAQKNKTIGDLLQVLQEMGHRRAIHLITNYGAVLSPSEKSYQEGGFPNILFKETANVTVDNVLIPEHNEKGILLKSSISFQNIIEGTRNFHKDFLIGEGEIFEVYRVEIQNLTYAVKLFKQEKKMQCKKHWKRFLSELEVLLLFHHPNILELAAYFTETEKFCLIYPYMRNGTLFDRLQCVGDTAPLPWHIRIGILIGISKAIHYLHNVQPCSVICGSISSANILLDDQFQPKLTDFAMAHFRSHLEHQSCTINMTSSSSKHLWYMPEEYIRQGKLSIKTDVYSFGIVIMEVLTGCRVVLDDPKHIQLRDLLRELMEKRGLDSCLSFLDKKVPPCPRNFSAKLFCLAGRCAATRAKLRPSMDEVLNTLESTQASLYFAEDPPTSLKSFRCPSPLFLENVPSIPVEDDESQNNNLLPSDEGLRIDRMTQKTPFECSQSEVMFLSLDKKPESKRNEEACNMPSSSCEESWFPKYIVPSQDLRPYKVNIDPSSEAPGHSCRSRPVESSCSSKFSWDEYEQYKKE

[38] = target: Adenosine receptor A1 (Homo sapiens) (UniProt P30542); settings: Compound concentration 10.0 uM
[39] = target: MAP kinase-activated protein kinase 2 (Homo sapiens, UniProt P49137); assay: MAPKAPK2(MPK2LGRH) Takeda global kinase panel
Sequence of MAP kinase-activated protein kinase 2 (P49137 whole entry): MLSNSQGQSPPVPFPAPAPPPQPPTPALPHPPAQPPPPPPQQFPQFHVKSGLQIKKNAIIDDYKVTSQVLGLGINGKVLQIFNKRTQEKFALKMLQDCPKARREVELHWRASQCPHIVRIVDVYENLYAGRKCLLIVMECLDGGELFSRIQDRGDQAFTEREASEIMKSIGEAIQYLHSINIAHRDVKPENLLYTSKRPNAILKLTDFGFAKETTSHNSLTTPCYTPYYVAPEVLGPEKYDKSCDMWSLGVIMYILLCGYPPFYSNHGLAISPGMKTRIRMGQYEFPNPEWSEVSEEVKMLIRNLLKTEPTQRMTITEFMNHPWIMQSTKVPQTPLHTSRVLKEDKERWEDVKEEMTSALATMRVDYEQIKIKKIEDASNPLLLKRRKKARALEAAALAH

[40] = target: Inhibitor of nuclear factor kappa-B kinase subunit alpha (Homo sapiens, UniProt O15111); assay: IKKalpha(CHUKLGP1) Takeda global kinase panel
[41] = target: Serine/threonine-protein kinase Nek11 (Homo sapiens, UniProt Q8NG66); assay: Nek11(NE11LGRI) Takeda global kinase panel
[42] = target: RAC-gamma serine/threonine-protein kinase (Homo sapiens, UniProt Q9Y243); assay: Akt3 [PKBgamma(AKT3LGY1)] Takeda global kinase panel
[43] = target: BMP-2-inducible protein kinase (Homo sapiens, UniProt Q9NSY1); assay: BIKE(BM2KLGY1) Takeda global kinase panel
[44] = target: Phosphatidylinositol 4,5-bisphosphate 3-kinase catalytic subunit alpha isoform (Homo sapiens, UniProt P42336); assay: PI3KCA(PI3ACGR1) Takeda global kinase panel
[45] = target: Phosphatidylinositol 4,5-bisphosphate 3-kinase catalytic subunit delta isoform (Homo sapiens, UniProt O00329); assay: PI3KCD(PI3DCGRK) Takeda global kinase panel

CN1C(=O)[C@@H](N2CCc3c(nn(Cc4ccccc4)c3Br)C2=O)COc2ccccc21 [TP-030-2]
pIC50 [1]: 6.00
pIC50 [2]: 6.00
pIC50 [3]: 6.00
pIC50 [4]: 6.00
pIC50 [5]: 6.00
pIC50 [6]: 6.00
pIC50 [7]: 6.00
pIC50 [8]: 6.00
pIC50 [9]: 6.00
inhibition [10]: 43%
pIC50 [11]: 6.00
pIC50 [12]: 6.00
inhibition at 60 min, 10 µM [13]: 7% (not active)
pIC50 [14]: 6.00
inhibition [15]: 38.2%
inhibition [16]: 0%
inhibition [17]: 13%
pIC50 [18]: 6.00
inhibition [19]: 16%
pIC50 [20]: 6.00
inhibition [21]: 59.6%
pIC50 [22]: 6.00
pIC50 [23]: 6.00
pIC50 [24]: 6.00
pIC50 [25]: 6.00
pIC50 [26]: 6.00
pIC50 [27]: 6.00
pIC50 [28]: 6.00
inhibition [29]: 0%
inhibition [30]: -8.33%
pIC50 [31]: 6.00
inhibition [32]: 3%
pIC50 [33]: 6.00
pIC50 [34]: 6.00
pIC50 [35]: 6.00
pIC50 [36]: 6.00
pIC50 [37]: 6.00
inhibition [38]: 11%
pIC50 [39]: 6.00
pIC50 [40]: 6.00
pIC50 [41]: 6.00
pIC50 [42]: 6.00
pIC50 [43]: 6.00
pIC50 [44]: 6.00
pIC50 [45]: 6.00
